# Assays:
# [1] = test system: bedstraw; assay: Test B pre/postemergence bedstraw; format: in vivo, Galium aparine; conditions: Preemergence; for Bedstraw plant response rating: scale 0 to 10, 0 is no effect, 10 is complete control
# How it was run: (§1)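 Test chemicals in a non-phytotoxic solvent mixture with surfactant were sprayed preemergence onto planted seeds and postemergence onto plants 2 to 18 cm tall (1- to 4-leaf stage). After twelve to sixteen days in a greenhouse, injury was visually rated against untreated controls from 0 (no effect) to 10 (complete control).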
# [2] = test system: blackgrass; assay: Test B pre/postemergence blackgrass; format: in vivo, Alopecurus myosuroides; conditions: Preemergence
# How it was run: as §1
# [3] = test system: surinam grass; assay: Test B pre/postemergence surinam grass; format: in vivo, Brachiaria decumbens; conditions: Preemergence; for B. signalgrass plant response rating: scale 0 to 10, 0 is no effect, 10 is complete control
# How it was run: as §1
# [4] = test system: cocklebur; assay: Test B pre/postemergence cocklebur; format: in vivo, Xanthium strumarium; conditions: Preemergence
# How it was run: as §1
# [5] = test system: corn; assay: Test B pre/postemergence corn; format: in vivo, Zea mays; conditions: Preemergence
# How it was run: as §1
# [6] = test system: crabgrass; assay: Test B pre/postemergence crabgrass; format: in vivo, Digitaria sanguinalis; conditions: Preemergence
# How it was run: as §1
# [7] = test system: giant foxtail; assay: Test B pre/postemergence giant foxtail; format: in vivo, Setaria faberii; conditions: Preemergence
# How it was run: as §1
# [8] = test system: morningglory; assay: Test B pre/postemergence morningglory; format: in vivo, Ipomoea hederacea; conditions: Preemergence
# How it was run: as §1
# [9] = test system: pigweed; assay: Test B pre/postemergence pigweed; format: in vivo, Amaranthus retroflexus; conditions: Preemergence
# How it was run: as §1
# [10] = test system: rape; assay: Test B pre/postemergence rape; format: in vivo, Brassica napus; conditions: Preemergence
# How it was run: as §1
# [11] = test system: soybean; assay: Test B pre/postemergence soybean; format: in vivo, Glycine max; conditions: Preemergence
# How it was run: as §1
# [12] = test system: sugar beet; assay: Test B pre/postemergence sugar beet; format: in vivo, Beta vulgaris; conditions: Preemergence
# How it was run: as §1
# [13] = test system: velvetleaf; assay: Test B pre/postemergence velvetleaf; format: in vivo, Abutilon theophrasti; conditions: Preemergence
# How it was run: as §1
# [14] = test system: wheat; assay: Test B pre/postemergence wheat; format: in vivo, Triticum aestivum; conditions: Preemergence
# How it was run: as §1
# [15] = test system: wild oat; assay: Test B pre/postemergence wild oat; format: in vivo, Avena fatua; conditions: Preemergence
# How it was run: as §1
# [16] = test system: purple nutsedge; assay: Test B pre/postemergence purple nutsedge; format: in vivo, Cyperus rotundus; conditions: Preemergence, Rate 62 g/ha; scale of 0 to 10 where 0 is no effect and 10 is complete control
# How it was run: as §1
# [17] = Rate 62 g/ha, scale of 0 to 10 where 0 is no effect and 10 is complete control
# [18] = Rate 125 g/ha, scale 0 to 10, 0 is no effect, 10 is complete control
# [19] = Rate 250 g/ha, scale 0 to 10, 0 is no effect, 10 is complete control
# [20] = Rate 500 g/ha, scale of 0 to 10 where 0 is no effect and 10 is complete control
compound,measurement,setting,value
CC(C)N(C(=O)n1oc(=O)n(CCC2OCCCO2)c1=O)c1ccc(F)cc1F [Compound 502],"Plant response rating, Bedstraw",[1]; [17],10
same,Bedstraw plant response rating,[1]; Rate 250 g/ha,10
same,Bedstraw plant response rating,[1]; Rate 500 g/ha,10
same,"Plant response rating, Blackgrass",[2]; [17],10
same,Blackgrass plant response rating,[2]; [18],10
same,Blackgrass plant response rating,[2]; [19],10
same,Blackgrass plant response rating,[2]; [20],10
same,"Plant response rating, B. signalgrass",[3]; [17],6
same,B. signalgrass plant response rating,[3]; Rate 125 g/ha,9
same,B. signalgrass plant response rating,[3]; Rate 250 g/ha,10
same,B. signalgrass plant response rating,[3]; Rate 500 g/ha,10
same,"Plant response rating, Cocklebur",[4]; [17],0
same,Cocklebur plant response rating,[4]; [18],0
same,Cocklebur plant response rating,[4]; [19],0
same,Cocklebur plant response rating,[4]; [20],9
same,"Plant response rating, Corn",[5]; [17],0
same,Corn plant response rating,[5]; [18],8
same,Corn plant response rating,[5]; [20],9
same,"Plant response rating, Crabgrass",[6]; [17],10
same,Crabgrass plant response rating,[6]; [18],10
same,Crabgrass plant response rating,[6]; [20],10
same,"Plant response rating, Giant foxtail",[7]; [17],10
same,Giant foxtail plant response rating,[7]; [18],10
same,Giant foxtail plant response rating,[7]; [20],10
same,"Plant response rating, Morningglory",[8]; [17],0
same,Morningglory plant response rating,[8]; [18],2
same,Morningglory plant response rating,[8]; [20],4
same,"Plant response rating, Redroot pigweed",[9]; [17],9
same,Redroot pigweed plant response rating,[9]; [18],9
same,Redroot pigweed plant response rating,[9]; [20],10
same,"Plant response rating, Rape",[10]; [17],2
same,Rape plant response rating,[10]; [18],3
same,Rape plant response rating,[10]; [20],9
same,"Plant response rating, Soybean",[11]; [17],0
same,Soybean plant response rating,[11]; [18],4
same,Soybean plant response rating,[11]; [20],5
same,"Plant response rating, Sugarbeets",[12]; [17],0
same,Sugarbeets plant response rating,[12]; [18],2
same,Sugarbeets plant response rating,[12]; [20],7
same,"Plant response rating, Velvetleaf",[13]; [17],0
same,Velvetleaf plant response rating,[13]; [18],5
same,Velvetleaf plant response rating,[13]; [20],8
same,"Plant response rating, Wheat",[14]; [17],0
same,Wheat plant response rating,[14]; [18],3
same,Wheat plant response rating,[14]; [20],7
same,"Plant response rating, Wild oats",[15]; [17],9
same,Wild oats plant response rating,[15]; [18],9
same,Wild oats plant response rating,[15]; [20],10
same,"Plant response rating, Nutsedge",[16],0
